Data from PubChem BioAssay (NCI).
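Compound exposure: 48 hours, 5 concentrations, 96-well plates. GI50 is the concentration that inhibits growth by half. Definition used: TGI = concentration required for complete inhibition of growth.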

Columns and labels:
Assay in all cases: inhibition of tumour cell growth, NCI panel, 48 h
[1] = test system: HT29 colon
[2] = test system: RPMI-8226 leukemia
[3] = test system: A498 renal
[4] = test system: NCI-H522 lung
[5] = test system: MALME-3M melanoma
[6] = test system: RXF 393 renal
[7] = test system: 786-0 renal
[8] = test system: SF-539 CNS
[9] = test system: OVCAR-8 ovarian
[10] = test system: LOX IMVI melanoma
[11] = test system: UO-31 renal
[12] = test system: OVCAR-5 ovarian
[13] = test system: SNB-75 CNS
[14] = test system: HS 578T breast
[15] = test system: HCT-116 colon
[16] = test system: EKVX NSCLC
[17] = test system: OVCAR-4 ovarian
[18] = test system: SN12C renal
[19] = test system: NCI-H460 lung
[20] = test system: A549 NSCLC
[21] = test system: PC-3 prostate
[22] = test system: K-562 leukemia
[23] = test system: ACHN renal
[24] = test system: HCT-15 colon
[25] = test system: MOLT-4 leukemia
[26] = test system: MDA-MB-435
[27] = test system: HOP-62 NSCLC
[28] = test system: CAKI-1 renal
[29] = test system: M14 melanoma
[30] = test system: HL-60(TB) leukemia
[31] = test system: SF-268 CNS
[32] = test system: IGROV1 ovarian
[33] = test system: HOP-92 NSCLC
[34] = test system: SR leukemia
[35] = test system: MDA-MB-468 breast
[36] = test system: COLO 205 colon
[37] = test system: BT-549 breast
[38] = test system: SK-OV-3 ovarian
[39] = test system: SW-620 colon
[40] = test system: SK-MEL-28 melanoma
[41] = test system: DU-145 prostate
[42] = test system: MCF7 breast
[43] = test system: TK-10 renal
[44] = test system: SNB-19 CNS
[45] = test system: NCI/ADR-RES ovarian
[46] = test system: T-47D breast
[47] = test system: UACC-62 melanoma
[48] = test system: SF-295 CNS
[49] = test system: SK-MEL-5 melanoma
[50] = test system: NCI-H226 lung
[51] = test system: SK-MEL-2 melanoma
[52] = test system: UACC-257 melanoma
[53] = test system: HCC-2998 colon
[54] = test system: MDA-MB-231 breast
[55] = test system: OVCAR-3 ovarian
[56] = test system: KM12 colon
[57] = test system: CCRF-CEM leukemia
[58] = test system: U251 CNS
[59] = test system: NCI-H23 lung

Q: With CCc1ccccc1NC(=O)N/C(N)=N/c1nc2ccccc2s1 as the molecule, how does the GI50 [1] read?
A: 31.6 nM

Q: What about the TGI [1] of the same molecule?
A: 135 nM

Q: And the GI50 [2]?
A: 44.5 nM

Q: What about the TGI [2] of the same molecule?
A: 21100 nM

Q: And the GI50 [3]?
A: 16400 nM

Q: And the TGI [3]?
A: 45600 nM

Q: What about the GI50 [4] of the same molecule?
A: < 16.7 nM

Q: What about the TGI [4] of the same molecule?
A: 90 nM

Q: And the GI50 [5]?
A: 62.2 nM

Q: And the TGI [5]?
A: 11300 nM

Q: What about the GI50 [6] of the same molecule?
A: 22.5 nM

Q: What about the TGI [6] of the same molecule?
A: 7530 nM

Q: And the GI50 [7]?
A: 89.8 nM

Q: And the TGI [7]?
A: 5140 nM

Q: And the GI50 [8]?
A: 21.1 nM

Q: What about the TGI [8] of the same molecule?
A: 64.2 nM

Q: What about the GI50 [9] of the same molecule?
A: 37 nM

Q: What about the TGI [9] of the same molecule?
A: 3520 nM

Q: And the GI50 [10]?
A: 43.1 nM

Q: And the TGI [10]?
A: 4620 nM

Q: What about the GI50 [11] of the same molecule?
A: 97.9 nM

Q: What about the TGI [11] of the same molecule?
A: 34600 nM

Q: What about the GI50 [12] of the same molecule?
A: 53.3 nM

Q: What about the TGI [12] of the same molecule?
A: 12000 nM

Q: What about the GI50 [13] of the same molecule?
A: < 18 nM

Q: What about the TGI [13] of the same molecule?
A: 4640 nM

Q: What about the GI50 [14] of the same molecule?
A: 28.1 nM

Q: What about the TGI [14] of the same molecule?
A: 7270 nM

Q: What about the GI50 [15] of the same molecule?
A: 37.7 nM

Q: What about the TGI [15] of the same molecule?
A: 1470 nM

Q: What about the GI50 [16] of the same molecule?
A: 50.3 nM

Q: And the TGI [16]?
A: 16100 nM

Q: And the GI50 [17]?
A: 1670 nM

Q: What about the TGI [17] of the same molecule?
A: 24700 nM

Q: And the GI50 [18]?
A: 43.8 nM

Q: And the TGI [18]?
A: 6910 nM

Q: And the GI50 [19]?
A: 35.4 nM

Q: What about the TGI [19] of the same molecule?
A: 3820 nM

Q: And the GI50 [20]?
A: 64 nM

Q: And the TGI [20]?
A: > 38800 nM

Q: And the GI50 [21]?
A: 52.8 nM

Q: And the TGI [21]?
A: 18800 nM

Q: What about the GI50 [22] of the same molecule?
A: 23.3 nM

Q: And the TGI [22]?
A: 14400 nM

Q: What about the GI50 [23] of the same molecule?
A: 79.3 nM

Q: And the TGI [23]?
A: 6210 nM

Q: What about the GI50 [24] of the same molecule?
A: 29.3 nM

Q: And the TGI [24]?
A: 7030 nM

Q: And the GI50 [25]?
A: 62.8 nM

Q: What about the TGI [25] of the same molecule?
A: 18700 nM

Q: What about the GI50 [26] of the same molecule?
A: < 14.6 nM

Q: What about the TGI [26] of the same molecule?
A: 38.9 nM

Q: And the GI50 [27]?
A: 69.6 nM

Q: And the TGI [27]?
A: 4550 nM

Q: What about the GI50 [28] of the same molecule?
A: 63.1 nM

Q: What about the TGI [28] of the same molecule?
A: 7200 nM

Q: And the GI50 [29]?
A: 28.6 nM

Q: And the TGI [29]?
A: 911 nM

Q: And the GI50 [30]?
A: 33.4 nM

Q: What about the TGI [30] of the same molecule?
A: 6310 nM

Q: What about the GI50 [31] of the same molecule?
A: 336 nM

Q: And the TGI [31]?
A: > 100000 nM

Q: What about the GI50 [32] of the same molecule?
A: 56.7 nM

Q: What about the TGI [32] of the same molecule?
A: 15200 nM

Q: What about the GI50 [33] of the same molecule?
A: 3090 nM

Q: What about the TGI [33] of the same molecule?
A: 29600 nM

Q: And the GI50 [34]?
A: 120 nM

Q: And the TGI [34]?
A: 21600 nM

Q: And the GI50 [35]?
A: 23.3 nM

Q: What about the TGI [35] of the same molecule?
A: 62.5 nM

Q: What about the GI50 [36] of the same molecule?
A: 29.4 nM

Q: What about the TGI [36] of the same molecule?
A: 94 nM

Q: And the GI50 [37]?
A: 91 nM

Q: What about the TGI [37] of the same molecule?
A: 1790 nM

Q: And the GI50 [38]?
A: 150 nM

Q: And the TGI [38]?
A: 33600 nM

Q: What about the GI50 [39] of the same molecule?
A: 42.2 nM

Q: What about the TGI [39] of the same molecule?
A: 15700 nM

Q: What about the GI50 [40] of the same molecule?
A: 2830 nM

Q: What about the TGI [40] of the same molecule?
A: 21300 nM

Q: What about the GI50 [41] of the same molecule?
A: 48.3 nM

Q: And the TGI [41]?
A: 2500 nM

Q: And the GI50 [42]?
A: 32.9 nM

Q: What about the TGI [42] of the same molecule?
A: 12300 nM

Q: And the GI50 [43]?
A: 4490 nM

Q: What about the TGI [43] of the same molecule?
A: 50000 nM

Q: And the GI50 [44]?
A: 51.7 nM

Q: And the TGI [44]?
A: 14600 nM

Q: What about the GI50 [45] of the same molecule?
A: 24.4 nM

Q: What about the TGI [45] of the same molecule?
A: 64.3 nM

Q: And the GI50 [46]?
A: 15100 nM

Q: And the TGI [46]?
A: > 100000 nM

Q: What about the GI50 [47] of the same molecule?
A: 38.3 nM

Q: And the TGI [47]?
A: 22700 nM

Q: What about the GI50 [48] of the same molecule?
A: 23.4 nM

Q: What about the TGI [48] of the same molecule?
A: 2040 nM

Q: And the GI50 [49]?
A: 31.1 nM

Q: And the TGI [49]?
A: 116 nM

Q: What about the GI50 [50] of the same molecule?
A: 144 nM

Q: And the TGI [50]?
A: 1520 nM

Q: What about the GI50 [51] of the same molecule?
A: 33.8 nM

Q: What about the TGI [51] of the same molecule?
A: 10800 nM

Q: And the GI50 [52]?
A: 4670 nM

Q: What about the TGI [52] of the same molecule?
A: > 54400 nM

Q: What about the GI50 [53] of the same molecule?
A: 29.1 nM

Q: What about the TGI [53] of the same molecule?
A: 3050 nM

Q: And the GI50 [54]?
A: 40.5 nM

Q: And the TGI [54]?
A: 598 nM

Q: What about the GI50 [55] of the same molecule?
A: 39.6 nM

Q: What about the TGI [55] of the same molecule?
A: 1550 nM

Q: And the GI50 [56]?
A: 38.1 nM

Q: And the TGI [56]?
A: 11100 nM

Q: What about the GI50 [57] of the same molecule?
A: 38.2 nM

Q: What about the TGI [57] of the same molecule?
A: 13500 nM

Q: What about the GI50 [58] of the same molecule?
A: 37 nM

Q: What about the TGI [58] of the same molecule?
A: 5640 nM

Q: And the GI50 [59]?
A: 45.4 nM

Q: And the TGI [59]?
A: 5480 nM
